In article PMC7294525 (Cell Research, 2020):
Like-named read-outs stand apart in the source and are kept apart here. Peptide text beside a SMILES is read from it. * marks the point of attachment. Cbz = O=C(OCc1ccccc1)*

Experiments:
[1] = biological target: SARS-CoV-2 main protease (M^pro) (Severe acute respiratory syndrome coronavirus 2, UniProt P0DTD1); experiment: biochemical; conditions: for inhibition at 20 µM: read-out: inhibition against M^pro
[2] = biological target: T1, EV-A71 2A protease (Human enterovirus 71, UniProt Q66478); experiment: biochemical
T1 sequence (Q66478 863-1012 limits assumed): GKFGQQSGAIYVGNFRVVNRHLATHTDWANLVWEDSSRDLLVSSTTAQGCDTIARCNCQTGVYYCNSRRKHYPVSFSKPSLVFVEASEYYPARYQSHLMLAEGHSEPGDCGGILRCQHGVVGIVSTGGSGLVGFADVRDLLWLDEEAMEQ

[3] = test system: influenza virus A/California/07/2009 (H1N1); experiment: Influenza A virus plaque reduction assay; type: cell-based; conditions: read-out: A/California/07/2009 (H1N1) antiviral activity (EC50)
[4] = biological target: EV-A71 3C protease (Human enterovirus 71, UniProt Q66478); experiment: biochemical
[5] = biological target: SARS-CoV-2 M^pro (Severe acute respiratory syndrome coronavirus 2, UniProt P0DTD1); type: binding
[6] = test system: SARS-CoV 3CL^pro (M^pro); conditions: read-out: IC50 against SARS-CoV 3CL^pro (M^pro); cited from earlier work
[7] = 8 µM protein, 4 mM DTT, ligand 12.5 µM (62: 25 µM), up to two ligands per dimer

Chain of EV-A71 3C protease (Q66478 1549-1731): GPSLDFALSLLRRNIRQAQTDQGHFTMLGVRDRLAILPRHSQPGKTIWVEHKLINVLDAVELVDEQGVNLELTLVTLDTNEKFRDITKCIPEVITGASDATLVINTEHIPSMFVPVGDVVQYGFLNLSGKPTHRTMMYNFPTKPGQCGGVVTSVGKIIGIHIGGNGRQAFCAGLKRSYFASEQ

## Cc1cccc(C)c1OCC(=O)N[C@@H](Cc1ccccc1)[C@@H](O)C[C@H](Cc1ccccc1)NC(=O)[C@H](C(C)C)N1CCCNC1=O [compound 10, lopinavir]
[1]
  IC50: > 20 µM

## COc1ccc2c(O[C@@H]3C[C@H]4C(=O)N[C@]5(C(=O)NS(=O)(=O)C6CC6)C[C@H]5/C=C\CCCCN(C)C(=O)[C@@H]4C3)cc(-c3nc(C(C)C)cs3)nc2c1C [compound 24, simeprevir]
[1]
  inhibition at 20 µM: > 60%

## CC(C)(C)NC(=O)N[C@H](C(=O)N1C[C@H]2[C@@H]([C@H]1C(=O)NC(CC1CCC1)C(=O)C(N)=O)C2(C)C)C(C)(C)C (stereo partly shown) [compound 28, boceprevir]
[1]
  inhibition at 20 µM: > 60%
[2]
  IC50: > 20 µM
[3]
  EC50: > 20 µM
[4]
  IC50: > 20 µM
[5]
  binding stoichiometry by native MS: one drug per protomer

## CCCC[C@H](NC(=O)[C@@H]1[C@@H]2[C@H](CN1C(=O)[C@@H](NC(=O)NC1(CS(=O)(=O)C(C)(C)C)CCCCC1)C(C)(C)C)C2(C)C)C(=O)C(=O)NC1CC1 [compound 29, narlaprevir]
[1]
  inhibition at 20 µM: > 60%
[2]
  IC50: > 20 µM
[4]
  IC50: > 20 µM

## CN(C)C(=O)COC(=O)Cc1ccc(OC(=O)c2ccc(NC(=N)N)cc2)cc1 [compound 39, camostat]
[1]
  IC50: > 20 µM

## CC(C)C[C@@H](C=O)NC(=O)[C@H](CC(C)C)NC(=O)[C@H](CC(C)C)NC(=O)OCc1ccccc1 [compound 43, MG-132] (Cbz-Leu-Leu-Leu-aldehyde)
[1]
  inhibition at 20 µM: > 60%
[2]
  IC50: > 20 µM
[4]
  IC50: > 20 µM

## CC(C)[C@H](NC(=O)OCc1ccccc1)C(=O)N[C@H](C=O)Cc1ccccc1 [compound 57, calpain inhibitor III] (Cbz-Val-Phe-aldehyde)
[1]
  IC50: > 20 µM

## CCOC(=O)/C=C/[C@H](C[C@@H]1CCNC1=O)NC(=O)[C@@H](CC(=O)[C@@H](NC(=O)c1cc(C)on1)C(C)C)Cc1ccc(F)cc1 [compound 65, rupintrivir]
[6]
  IC50: > 100 µM
[2]
  activity against EV-A71 2A protease: inactive
[4]
  activity against EV-A71 3C protease: potent inhibition

## GC-376 [compound 64]
[2]
  activity against EV-A71 2A protease: inactive
[3]; plaque assay
  EC50: > 20 µM
[4]
  activity against EV-A71 3C protease: potent inhibition

## calpain inhibitor II [compound 61]
[3]; plaque assay
  EC50: > 20 µM
[5]; [7]
  binding stoichiometry by native MS: one drug per protomer

## calpain inhibitor XII [compound 62]
[3]; plaque assay
  EC50: > 20 µM
[5]; [7]
  binding stoichiometry by native MS: one drug per protomer
